Test results taken from patent US5478818A, “Estradiol derivative-alkylating agent conjugate with reduced hormonal activity, process for preparing the same, compounds useful for the preparation thereof, and growth inhibiting composition containing the conjugate or estradiol derivative” (priority 1993, dated 1995).
Where two headings read alike, the source gives them in different places.

How the values were obtained:
[1] = system: uterus; test: Estrogen action (uterine weight tests); assay type: in vivo; details: once hypodermically, 3-week-old Wistar female rats, 24 hours; higher = weaker estrogen action
Protocol: The estrogen action of the conjugate and the estradiol derivative were each examined according to the uterine weight tests. The estrogen action was found diminished.
The test compounds and estradiol dissolved in sesame oil (containing 3% benzyl alcohol) were each administered once hypodermically to 3-week-old Wistar female rats. 24 hours later, the uterus of each test rat was removed and its weight (ratio to the body weight) was measured. From the relation between the uterus weight/body weight ratio and the dosage, the compound dosage that gives a uterus weight/body weight ratio twice that in the control group was determined. The dosages of the test compounds are shown as a ratio to the dosage of estradiol. 3-Benzoyloxy-1,3,5(10)-estratriene-17β-[4-[p-[bis (2-chloroethyl)amino]phenyl]-butyryloxy]acetate was used as a comparative compound.

[2] = system: SC-115 cells; test: Growth inhibiting effect in testosterone-added system using SC-115 cells (tritium-labeled thymidine uptake); assay type: cell-based
Protocol: Uptake of tritium-labeled thymidine was examined in a serum free culture system using testosterone-dependent SC-115 cells. Strong inhibitory effects of the conjugate and the estradiol derivatives were shown.
The SC-115 cells were cultured on a 96-well microplate (5,000 cells/well) for 24 hours with a culture medium (200 μl/well; Ham's F-12/MEM-E (98% ), dextran-treated fetal calf serum (2%) and testosterone (1×10^-8 M)). The culture medium was replaced with fresh medium containing the test compound (Ham's F-12/MEM-E, bovine serum albumin (0.1%), testosterone (1×10^-8 M) and test compound of various concentrations). The culture medium was replaced every two days, and culture was continued for 7 days. Thymidine (1 μci/ml, tritium-labeled)was added, and 5 hours later, the culture medium was removed. The cells were washed with PBS and then washed twice with ice-cold trichloroacetic acid (10%). Then the cells were dissolved in 0.5N sodium hydroxide and neutralized with 0.5N hydrochloric acid. The radioactivity of the neutralized solution was measured by a liquid scintillation counter to determine the growth inhibiting effect (IC50).

[3] = system: DU-145 cells; test: Growth inhibiting effect in bFGF-added system using DU-145 cells (tritium-labeled thymidine uptake); assay type: cell-based
Protocol: Uptake of tritium-labeled thymidine was examined in a serum free culture system using bFGF-dependent DU-145 cells. Strong inhibitory effects of the conjugate and the estradiol derivative were shown.
The DU-145 cells were cultured on a 96-well microplate (5,000 cells/well) for 24 hours with a culture medium (200 μl/well; Ham's F-12/MEM-E (98%) and dextran-treated fetal calf serum (2%)). Then the culture medium was replaced with fresh medium containing the test compound (Ham's F-12/MEM-E, bovine serum albumin (0.1%), bovine pituitary-derived bFGF (1 ng/ml) and the test compound of various concentrations). Culture with this medium was continued for 4 days. Thymidine (1 μci/ml, tritium-labeled) was added, and 5 hours layer, the culture medium was removed. The cells were washed with PBS and then washed twice with ice-cold trichloroacetic acid (10%). Then the cells were dissolved in 0.5N sodium hydroxide and neutralized with 0.5N hydrochloric acid. The radioactivity of the neutralized solution was measured by a liquid scintillation counter to determine the growth inhibiting effect (IC50).

[4] = SC-115 cells, testosterone 1×10^-8 M, 7 days, read-out: IC50
[5] = 168 h, SC-115 cells, testosterone 1×10^-8 M, 7 days, read-out: IC50
[6] = DU-145 cells, bFGF 1 ng/ml, 4 days, read-out: IC50

| Compound | Dosage that gives a uterus wt/body wt ratio twice that in control group (ratio to estradiol dosage) [1] | IC50 [2, 4] [nM] | IC50 [2, 5] [nM] | IC50 [3, 6] [nM] | IC50 ([3]; Homo sapiens, 96 h, DU-145 cells, bFGF 1 ng/ml, 4 days, read-out: IC50) [nM] | IC50 ([2]; 168 h) [nM] | IC50 ([3]; Homo sapiens, DU-145, 96 h, read-out: IC50 (ND*: no inhibiting action observed)) [nM] |
| --- | --- | --- | --- | --- | --- | --- | --- |
| C[C@]12CC[C@@H]3c4ccc(OCc5ccccc5)cc4CC[C@H]3[C@@H]1CC[C@@H]2OCCOC(=O)CCCc1ccc(N(CCCl)CCCl)cc1 [Compound I-5, 1-[3-benzyloxy-1,3,5(10)-estratriene-17β-oxy]-2-[4-[p-[bis(2-chloroethyl)amino]phenyl]-butyryloxy]ethane] | > 7000 ratio to estradiol dosage | 500 | – | – | – | – | – |
| Cc1cc(OCc2ccccc2)cc2c1[C@H]1CC[C@]3(C)[C@@H](OCCO)CC[C@H]3[C@@H]1CC2 [II-2, 2-[3-benzyloxy-1,3,5(10) -estratriene-1-methyl-17β-oxy]ethanol] | > 7000 ratio to estradiol dosage | – | 700 | – | – | – | – |
| C[C@]12CC[C@@H]3c4ccc(OC(=O)c5ccccc5)cc4CC[C@H]3[C@@H]1CC[C@@H]2OCCOCCCCc1ccc(N(CCO)CCO)cc1 [Compound I-4] | 1400 ratio to estradiol dosage | 800 | – | – | – | – | – |
| 1-[3-benzoyloxy-1,3,5(10)-estratriene-1-methyl-17β-oxy]-2-[4-[p-[bis(2-hydroxyethyl)amino]phenyl]-butoxy]ethane [Compound I-3] | > 7000 ratio to estradiol dosage | 200 | – | 9200 | – | – | – |
| C[C@]12CC[C@@H]3c4ccc(OCc5ccccc5)cc4CC[C@H]3[C@@H]1CC[C@@H]2OCCOCCCCc1ccc(N(CCCl)CCCl)cc1 [Compound I-1, 1-[3-benzyloxy-1,3,5(10) -estratriene-17β-oxy]-2-[4-[p-[bis (2-chloroethyl)amino]phenyl]butoxy]ethane] | > 7000 ratio to estradiol dosage | 1200 | – | 4600 | – | – | – |
| C[C@]12CC[C@@H]3c4ccc(OC(=O)c5ccccc5)cc4CC[C@H]3[C@@H]1CC[C@@H]2OCCOCCCCc1ccc(N(CCCl)CCCl)cc1 [Compound I-2, 1-[3-benzoyloxy-1,3,5(10)-estratriene-17β-oxy]-2-[4-[p-[bis (2-chloroethyl)amino]phenyl]butoxy]ethane] | > 7000 ratio to estradiol dosage | 1300 | – | 7800 | – | – | – |
| C[C@]12CC[C@@H]3c4ccc(OCc5ccccc5)cc4CC[C@H]3[C@@H]1CC[C@@H]2OCCO [II-1, 2-[3-benzyloxy-1,3,5 (10) -estratriene-17β-oxy]ethanol] | 200 ratio to estradiol dosage | – | 200 | – | 2900 | – | – |
| Cc1cc(OC(=O)c2ccccc2)cc2c1[C@H]1CC[C@]3(C)[C@@H](OCCO)CC[C@H]3[C@@H]1CC2 [II-3, 2-[3-benzoyloxy-1,3,5(10) -estratriene-1-methyl-17β-oxy]ethanol] | > 7000 ratio to estradiol dosage | – | 1500 | – | – | – | – |
| C[C@]12CC[C@@H]3c4ccc(OC(=O)c5ccccc5)cc4CC[C@H]3[C@@H]1CC[C@@H]2OC(=O)COC(=O)CCCc1ccc(N(CCCl)CCCl)cc1 [Comparative compound, 3-Benzoyloxy-1,3,5(10)-estratriene-17β-[4-[p-[bis (2-chloroethyl)amino]phenyl]-butyryloxy]acetate, reference compound] | 200 ratio to estradiol dosage | – | – | – | – | 2600 | > 10000 |
| C[C@]12CC[C@@H]3c4ccc(OC(=O)c5ccccc5)cc4CC[C@H]3[C@@H]1CC[C@@H]2OCCOC(=O)CCCc1ccc(N(CCCl)CCCl)cc1 [Compound I-6, 1-[3-benzoyloxy-1,3,5(10)-estratriene-17β-oxy]-2-[4-[p-[bis (2-chloroethyl)amino]phenyl]-butyryloxy]ethane] | > 7000 ratio to estradiol dosage | 1500 | – | – | – | – | – |
